Results: ChEMBL document CHEMBL1201862, “PubChem BioAssay data set” (2004)
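Step 1: Grow cells in 96-well plates. Step 2: Expose to compound for 48 hours at 5 concentrations. Step 3: Interpolate endpoints linearly; if unreached, use highest concentration. At the GI50, growth is halved.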 The source made the active and inactive calls. Cut-off read from the data, not from the text of the source: active = GI50 up to about 1.1 µM and inactive = higher.

Legend:
Test in all cases: NCI anticancer screen, dose series, 48 h
A549 = tested on: A549
COLO 205 = tested on: COLO 205
HOP-62 = tested on: HOP-62
IGROV-1 = tested on: IGROV-1
KM12 = tested on: KM12
MDA-MB-231 = tested on: MDA-MB-231
NCI-H23 = tested on: NCI-H23
NCI-H460 = tested on: NCI-H460
OVCAR-3 = tested on: OVCAR-3
OVCAR-4 = tested on: OVCAR-4
OVCAR-8 = tested on: OVCAR-8
SF-295 = tested on: SF-295
SK-MEL-2 = tested on: SK-MEL-2
SK-MEL-5 = tested on: SK-MEL-5
SN12C = tested on: SN12C
SNB-19 = tested on: SNB-19
TK-10 = tested on: TK-10
U-251 = tested on: U-251
A498 = tested on: A498
MCF7 = tested on: MCF7

Measured: GI50

O=C(c1cccnc1)N1N=C(c2ccc3c(c2)OCO3)CC1(O)c1cc(F)c(Cl)cc1Cl (configuration not stated)
inactive: A549 28.6 µM | COLO 205 15.1 µM | HOP-62 18 µM | IGROV-1 11.4 µM | KM12 26.9 µM | MDA-MB-231 17.3 µM | NCI-H23 24.9 µM | NCI-H460 17.4 µM | OVCAR-3 11 µM | OVCAR-4 22.4 µM | OVCAR-8 18.8 µM | SF-295 19.1 µM | SK-MEL-2 20.7 µM | SK-MEL-5 15 µM | SN12C 18.5 µM | SNB-19 32.6 µM | TK-10 39.1 µM | U-251 16.7 µM

CC(=O)OCCOCNC(=S)N/N=C/c1cc(Br)cs1
inactive: A498 > 100 µM | A549 > 100 µM | COLO 205 > 100 µM | HOP-62 > 100 µM | IGROV-1 > 100 µM | KM12 > 100 µM | NCI-H23 > 100 µM | NCI-H460 > 100 µM | OVCAR-3 > 100 µM | OVCAR-4 > 100 µM | OVCAR-8 > 100 µM | SF-295 > 100 µM | SK-MEL-2 > 100 µM | SK-MEL-5 > 100 µM | SN12C > 100 µM | SNB-19 > 100 µM | TK-10 > 100 µM | U-251 > 100 µM

NC1CCCCC1.O=C(O)C1(P(=O)(O)O)CC1
inactive: A498 > 100 µM | A549 > 100 µM | COLO 205 > 100 µM | HOP-62 > 100 µM | IGROV-1 > 100 µM | KM12 > 100 µM | NCI-H23 > 100 µM | NCI-H460 > 100 µM | OVCAR-3 > 100 µM | OVCAR-4 > 100 µM | OVCAR-8 > 100 µM | SF-295 > 100 µM | SK-MEL-2 > 100 µM | SK-MEL-5 > 100 µM | SN12C > 100 µM | SNB-19 > 100 µM | TK-10 > 100 µM | U-251 > 100 µM

c1ccc2c(c1)nnn2CN1CCOCC1
inactive: A498 > 100 µM | A549 > 100 µM | HOP-62 > 100 µM | IGROV-1 94.4 µM | KM12 > 100 µM | MDA-MB-231 > 100 µM | NCI-H23 > 100 µM | NCI-H460 46.3 µM | OVCAR-3 28.9 µM | OVCAR-4 > 100 µM | OVCAR-8 36.3 µM | SF-295 > 100 µM | SK-MEL-2 > 100 µM | SK-MEL-5 > 100 µM | SN12C 39.8 µM | SNB-19 > 100 µM | TK-10 > 100 µM | U-251 > 100 µM

COc1cc(/C=C2/C(=O)N(C(=O)OCC(C)C)C(Cc3cc(OC)c(OC)c(C)c3OC)C(=O)N2Cc2ccccc2)c(OC)c(C)c1OC (configuration not stated)
inactive: A498 > 100 µM | A549 > 100 µM | COLO 205 11.2 µM | HOP-62 54.7 µM | IGROV-1 > 100 µM | KM12 > 100 µM | NCI-H23 > 100 µM | NCI-H460 30.5 µM | OVCAR-3 79.4 µM | OVCAR-4 > 100 µM | OVCAR-8 > 100 µM | SF-295 62.7 µM | SK-MEL-2 94.6 µM | SK-MEL-5 74.6 µM | SN12C > 100 µM | SNB-19 > 100 µM | TK-10 > 100 µM | U-251 > 100 µM

Cc1ccccc1NC(=O)C(=O)Cc1nc2ccccc2s1
inactive: A498 > 100 µM | A549 > 100 µM | COLO 205 > 100 µM | HOP-62 > 100 µM | IGROV-1 > 100 µM | KM12 > 100 µM | NCI-H23 > 100 µM | NCI-H460 > 100 µM | OVCAR-3 > 100 µM | OVCAR-4 > 100 µM | OVCAR-8 > 100 µM | SF-295 > 100 µM | SK-MEL-2 > 100 µM | SK-MEL-5 > 100 µM | SN12C > 100 µM | SNB-19 > 100 µM | TK-10 > 100 µM | U-251 > 100 µM

CCC1CCCCN1CC(C(C)=O)C(c1ccccc1)c1c(O)c2ccccc2oc1=O (configuration not stated)
inactive: A498 > 100 µM | A549 > 100 µM | COLO 205 76.6 µM | HOP-62 > 100 µM | IGROV-1 > 100 µM | KM12 > 100 µM | NCI-H23 > 100 µM | NCI-H460 > 100 µM | OVCAR-3 > 100 µM | OVCAR-4 > 100 µM | OVCAR-8 > 100 µM | SF-295 > 100 µM | SK-MEL-2 > 100 µM | SK-MEL-5 > 100 µM | SN12C > 100 µM | SNB-19 > 100 µM | TK-10 > 100 µM | U-251 > 100 µM

O=C(Nn1c(-c2ccccc2)nc2ccccc2c1=O)c1cccc([N+](=O)[O-])c1
inactive: A498 48.9 µM | A549 44.4 µM | COLO 205 54.3 µM | HOP-62 > 100 µM | IGROV-1 > 100 µM | KM12 > 100 µM | MCF7 38 µM | NCI-H23 57.1 µM | NCI-H460 53.8 µM | OVCAR-3 > 100 µM | OVCAR-4 86.1 µM | OVCAR-8 > 100 µM | SK-MEL-5 37.6 µM | SN12C > 100 µM | SNB-19 61.1 µM | TK-10 91.8 µM | U-251 62.4 µM

Cc1[nH]c2ccccc2c1C1Cc2ccccc2N1C(=O)/C(Cl)=C/c1ccccc1 (configuration not stated)
inactive: A498 > 78.2 µM | A549 88.1 µM | COLO 205 > 100 µM | HOP-62 > 100 µM | IGROV-1 61.1 µM | KM12 > 100 µM | NCI-H23 48.4 µM | NCI-H460 > 100 µM | OVCAR-3 > 100 µM | OVCAR-4 > 88.1 µM | OVCAR-8 > 100 µM | SF-295 > 31 µM | SK-MEL-2 > 91 µM | SK-MEL-5 > 100 µM | SN12C > 100 µM | SNB-19 > 100 µM | TK-10 > 73.3 µM | U-251 > 100 µM

CSc1nc2c(nc(N)n2C2OC(COC(C)=O)C(OC(C)=O)C(OC(C)=O)C2OC(C)=O)c(=O)n1C (configuration not stated)
inactive: A498 > 100 µM | A549 > 100 µM | COLO 205 > 100 µM | HOP-62 > 100 µM | IGROV-1 > 100 µM | KM12 > 100 µM | NCI-H23 > 100 µM | NCI-H460 > 100 µM | OVCAR-3 > 100 µM | OVCAR-4 > 100 µM | OVCAR-8 > 100 µM | SF-295 > 100 µM | SK-MEL-2 > 100 µM | SK-MEL-5 > 100 µM | SN12C > 100 µM | SNB-19 > 100 µM | TK-10 > 100 µM | U-251 > 100 µM

COC(C/C=C\C=C\CC/C=C/CC(C)/C=C/C(=C\C(=O)O)CC(=O)O)/C(C)=C\C=C(/C)C(=O)O (configuration not stated)
inactive: A498 > 100 µM | A549 > 100 µM | COLO 205 > 100 µM | HOP-62 > 100 µM | IGROV-1 > 100 µM | KM12 > 100 µM | MDA-MB-231 > 100 µM | NCI-H23 > 100 µM | NCI-H460 > 100 µM | OVCAR-3 > 100 µM | OVCAR-4 > 100 µM | SF-295 > 100 µM | SK-MEL-2 > 100 µM | SK-MEL-5 99.3 µM | SN12C > 100 µM | SNB-19 > 100 µM | TK-10 > 100 µM | U-251 > 100 µM
